Assay results: publication PMC5218480 (PLoS ONE, 2017)

Test system: MV-4-11 cells
Assay: Gene expression microarray analysis (Affymetrix PrimeView) and GSEA
Format: cell-based, human
Set-up: RFU PODN (11730768_x_at) / Fold change /veh PODN (11730768_x_at) / RFU LINC00158 (11744669_a_at) / Fold change /veh LINC00158 (11744669_a_at) / RFU DUSP10 (11751237_a_at) / Fold change /veh DUSP10 (11751237_a_at) / RFU ID3 (11757404_x_at) / Fold change /veh ID3 (11757404_x_at) / RFU PLEKHG5 (11737974_s_at) / Fold change /veh PLEKHG5 (11737974_s_at) / RFU LRRC4B (11730491_at) / Fold change /veh LRRC4B (11730491_at) / RFU GIMAP4 (11747438_a_at) / Fold change /veh GIMAP4 (11747438_a_at) / RFU KRT8 (11758183_x_at) / Fold change /veh KRT8 (11758183_x_at) / RFU CNN1 (11734310_a_at) / Fold change /veh CNN1 (11734310_a_at) / RFU VPS37D (11726825_at) / Fold change /veh VPS37D (11726825_at) / RFU C10orf10 (11716522_x_at) / Fold change /veh C10orf10 (11716522_x_at) / RFU KIR2DL2 /// KIR2DL4 /// KIR2DL5A /// KIR2DL5B /// KIR2DS1 /// KIR2DS2 /// KIR2DS3 /// KIR2DS4 /// KIR3DL3 /// KIR3DL3 /// KIR3DS1 (11738374_at) / Fold change /veh KIR2DL2 /// KIR2DL4 /// KIR2DL5A /// KIR2DL5B /// KIR2DS1 /// KIR2DS2 /// KIR2DS3 /// KIR2DS4 /// KIR3DL3 /// KIR3DL3 /// KIR3DS1 (11738374_at) / RFU C1QL1 (11718748_at) / Fold change /veh C1QL1 (11718748_at) / RFU TMPRSS4 (11747572_a_at) / Fold change /veh TMPRSS4 (11747572_a_at) / RFU HAMP (11756126_x_at) / Fold change /veh HAMP (11756126_x_at) / RFU RNFT2 (11725882_a_at) / Fold change /veh RNFT2 (11725882_a_at) / RFU NR4A2 (11747474_a_at) / Fold change /veh NR4A2 (11747474_a_at) / RFU ABCC12 (11746883_a_at) / Fold change /veh ABCC12 (11746883_a_at) / RFU TMEM136 (11760407_x_at) / Fold change /veh TMEM136 (11760407_x_at) / RFU CLDN22 /// WWC2 (11732394_at) / Fold change /veh CLDN22 /// WWC2 (11732394_at) / RFU HLA-DPB1 (11760878_x_at) / Fold change /veh HLA-DPB1 (11760878_x_at) / RFU SPINT1 (11716480_a_at) / Fold change /veh SPINT1 (11716480_a_at) / RFU GAP43 (11754022_s_at) / Fold change /veh GAP43 (11754022_s_at) / RFU A4GNT (11735810_at) / Fold change /veh A4GNT (11735810_at) / RFU PRB3 (11715151_x_at) / Fold change /veh PRB3 (11715151_x_at) / RFU TUBB4B (11761932_at) / Fold change /veh TUBB4B (11761932_at) / RFU CAPN14 (11732068_a_at) / Fold change /veh CAPN14 (11732068_a_at) / RFU TMCC2 (11721928_a_at) / Fold change /veh TMCC2 (11721928_a_at) / RFU IRGQ (11745062_a_at) / Fold change /veh IRGQ (11745062_a_at) / RFU FAM174B (11720279_a_at) / Fold change /veh FAM174B (11720279_a_at) / RFU TMPRSS4 (11748680_a_at) / Fold change /veh TMPRSS4 (11748680_a_at) / RFU FAM212B (11763350_a_at) / Fold change /veh FAM212B (11763350_a_at) / RFU PLEKHG5 (11743358_a_at) / Fold change /veh PLEKHG5 (11743358_a_at) / RFU ZSCAN30 (11745921_a_at) / Fold change /veh ZSCAN30 (11745921_a_at) / RFU CMKLR1 (11741424_a_at) / Fold change /veh CMKLR1 (11741424_a_at) / RFU LOC101060620 /// MAPK8IP1 (11723275_at) / Fold change /veh LOC101060620 /// MAPK8IP1 (11723275_at) / RFU SPTSSB (11747773_x_at) / Fold change /veh SPTSSB (11747773_x_at) / RFU PRSS12 (11739890_at) / Fold change /veh PRSS12 (11739890_at) / RFU BIN1 (11741810_x_at) / Fold change /veh BIN1 (11741810_x_at) / RFU WNT11 (11732464_a_at) / Fold change /veh WNT11 (11732464_a_at) / RFU C10orf10 (11716521_a_at) / Fold change /veh C10orf10 (11716521_a_at) / RFU C5orf56 (11738089_at) / Fold change /veh C5orf56 (11738089_at) / RFU CYB561 (11721691_x_at) / Fold change /veh CYB561 (11721691_x_at) / RFU ANKRD19P (11752326_a_at) / Fold change /veh ANKRD19P (11752326_a_at) / RFU OR2T12 /// OR2T33 /// OR2T8 (11738714_s_at) / Fold change /veh OR2T12 /// OR2T33 /// OR2T8 (11738714_s_at) / RFU VCAN (11748164_a_at) / Fold change /veh VCAN (11748164_a_at) / RFU JSRP1 (11732532_at) / Fold change /veh JSRP1 (11732532_at) / RFU KRTAP10-11 (11738290_x_at) / Fold change /veh KRTAP10-11 (11738290_x_at) / RFU MYO3A (11730013_a_at) / Fold change /veh MYO3A (11730013_a_at) / RFU EBF3 (11725865_a_at) / Fold change /veh EBF3 (11725865_a_at) / RFU CAMK2N1 (11719241_x_at) / Fold change /veh CAMK2N1 (11719241_x_at) / RFU C5orf56 (11738088_a_at) / Fold change /veh C5orf56 (11738088_a_at) / RFU OLFML3 (11715873_a_at) / Fold change /veh OLFML3 (11715873_a_at) / RFU LOC100653217 /// NTM (11731650_a_at) / Fold change /veh LOC100653217 /// NTM (11731650_a_at) / RFU MAPK11 (11762145_a_at) / Fold change /veh MAPK11 (11762145_a_at) / RFU FIZ1 (11724087_x_at) / Fold change /veh FIZ1 (11724087_x_at) / RFU OASL (11726364_x_at) / Fold change /veh OASL (11726364_x_at) / RFU SOX15 (11748057_x_at) / Fold change /veh SOX15 (11748057_x_at) / RFU CD79A (11719716_a_at) / Fold change /veh CD79A (11719716_a_at) / RFU HIST1H1D (11736915_at) / Fold change /veh HIST1H1D (11736915_at) / RFU CASKIN2 (11723855_a_at) / Fold change /veh CASKIN2 (11723855_a_at) / RFU LOC730098 (11760151_x_at) / Fold change /veh LOC730098 (11760151_x_at) / RFU OR4N2 (11742367_at) / Fold change /veh OR4N2 (11742367_at) / RFU PRRT2 (11749266_a_at) / Fold change /veh PRRT2 (11749266_a_at) / RFU SNX32 (11753110_a_at) / Fold change /veh SNX32 (11753110_a_at) / RFU CDHR5 (11726645_a_at) / Fold change /veh CDHR5 (11726645_a_at) / RFU RCAN1 (11760418_a_at) / Fold change /veh RCAN1 (11760418_a_at) / RFU FAM167A (11723789_a_at) / Fold change /veh FAM167A (11723789_a_at) / RFU FAM26E (11764081_at) / Fold change /veh FAM26E (11764081_at) / RFU ISYNA1 (11749810_s_at) / Fold change /veh ISYNA1 (11749810_s_at) / RFU ACY1 (11761880_at) / Fold change /veh ACY1 (11761880_at) / RFU 11764098_at / Fold change /veh 11764098_at / RFU SAMD14 (11745864_x_at) / Fold change /veh SAMD14 (11745864_x_at) / RFU NPB (11741838_a_at) / Fold change /veh NPB (11741838_a_at) / RFU TMPRSS6 (11731388_a_at) / Fold change /veh TMPRSS6 (11731388_a_at) / RFU KRTAP10-2 (11738614_at) / Fold change /veh KRTAP10-2 (11738614_at) / RFU ARHGAP8 /// PRR5-ARHGAP8 (11727945_x_at) / Fold change /veh ARHGAP8 /// PRR5-ARHGAP8 (11727945_x_at) / RFU KRTAP5-7 /// NADSYN1 (11734609_at) / Fold change /veh KRTAP5-7 /// NADSYN1 (11734609_at) / RFU RASL12 (11751679_a_at) / Fold change /veh RASL12 (11751679_a_at) / RFU CDKN2B (11736163_a_at) / Fold change /veh CDKN2B (11736163_a_at) / RFU PRF1 (11729649_at) / Fold change /veh PRF1 (11729649_at) / RFU, ZNF638 /// ZNF638-IT1 / Fold change vs veh, ZNF638 /// ZNF638-IT1 / RFU, PANK3 / Fold change vs veh, PANK3 / RFU, SH3YL1 / Fold change vs veh, SH3YL1 / RFU, ZEB2 / Fold change vs veh, ZEB2 / RFU, NRIP1 / Fold change vs veh, NRIP1 / RFU, PTTG1IP / Fold change vs veh, PTTG1IP / RFU, CAPN2 / Fold change vs veh, CAPN2 / RFU, MED14 / Fold change vs veh, MED14 / RFU, SNORA58 / Fold change vs veh, SNORA58 / RFU, C1orf63 / Fold change vs veh, C1orf63 / RFU, LRRFIP1 / Fold change vs veh, LRRFIP1 / RFU, NDUFAF7 / Fold change vs veh, NDUFAF7 / RFU, SLC12A2 / Fold change vs veh, SLC12A2 / RFU, IBTK / Fold change vs veh, IBTK / RFU, ESF1 / Fold change vs veh, ESF1 / Fold change vs veh, TMEM50B / RFU, TAOK1 / Fold change vs veh, TAOK1 / RFU, ACBD3 / Fold change vs veh, ACBD3 / RFU, TMA16 / Fold change vs veh, TMA16 / RFU, RWDD3 / Fold change vs veh, RWDD3 / RFU, BCAT1 / Fold change vs veh, BCAT1 / RFU, EDEM3 / Fold change vs veh, EDEM3 / RFU, TMEM33 / Fold change vs veh, TMEM33 / RFU, WDR75 / Fold change vs veh, WDR75 / RFU, AHCTF1 / Fold change vs veh, AHCTF1 / RFU, TFRC / Fold change vs veh, TFRC / RFU, ZDHHC17 / Fold change vs veh, ZDHHC17 / RFU, NOM1 / Fold change vs veh, NOM1 / RFU, ARL8B / Fold change vs veh, ARL8B / RFU, ZBTB11 / Fold change vs veh, ZBTB11 / RFU, TAMM41 / Fold change vs veh, TAMM41 / RFU, KIAA1704 /// LOC100996395 / Fold change vs veh, KIAA1704 /// LOC100996395 / RFU, ING1 / Fold change vs veh, ING1 / RFU, TRMT61B / Fold change vs veh, TRMT61B / RFU, FUBP3 / Fold change vs veh, FUBP3 / RFU, TP53 / Fold change vs veh, TP53 / RFU, TNKS2 / Fold change vs veh, TNKS2 / RFU, ZFP14 / Fold change vs veh, ZFP14 / RFU, ACTR2 / Fold change vs veh, ACTR2 / RFU, PPP3R1 / Fold change vs veh, PPP3R1 / RFU, PIK3R1 / Fold change vs veh, PIK3R1 / RFU, HNRNPA1 / Fold change vs veh, HNRNPA1 / RFU, RNF170 / Fold change vs veh, RNF170 / RFU, ZNF28 / Fold change vs veh, ZNF28 / RFU, RNGTT / Fold change vs veh, RNGTT / RFU, OGT / Fold change vs veh, OGT / RFU, BRD1 / Fold change vs veh, BRD1 / RFU, MARS / Fold change vs veh, MARS / RFU, ZNF655 / Fold change vs veh, ZNF655 / RFU, FAHD1 / Fold change vs veh, FAHD1 / RFU, BDP1 / Fold change vs veh, BDP1 / RFU, LRRCC1 / Fold change vs veh, LRRCC1 / RFU, ARID1A / Fold change vs veh, ARID1A / RFU, ZNF146 / Fold change vs veh, ZNF146 / RFU, ZNF330 / Fold change vs veh, ZNF330 / RFU, GPN3 / Fold change vs veh, GPN3 / RFU, C9orf123 / Fold change vs veh, C9orf123 / RFU, N4BP2L2 / Fold change vs veh, N4BP2L2 / RFU, ARFIP1 / Fold change vs veh, ARFIP1 / RFU, FAM179B / Fold change vs veh, FAM179B / RFU, BCL10 / Fold change vs veh, BCL10 / RFU, UHRF1BP1L / Fold change vs veh, UHRF1BP1L / RFU, BET1 / Fold change vs veh, BET1 / RFU, CNOT2 / Fold change vs veh, CNOT2 / RFU, ZNF268 / Fold change vs veh, ZNF268 / Fold change vs veh, ZNF507 / RFU, DGCR2 / Fold change vs veh, DGCR2 / RFU, WDSUB1 / Fold change vs veh, WDSUB1 / Fold change vs veh, HSP90B1 /// MIR3652 / RFU, ADSS / Fold change vs veh, ADSS / RFU, GK / Fold change vs veh, GK / RFU, ZNF148 / Fold change vs veh, ZNF148 / RFU, TAF9 / Fold change vs veh, TAF9 / RFU, SLC1A5 / Fold change vs veh, SLC1A5 / RFU, SLMO2 / Fold change vs veh, SLMO2 / RFU, ABCC4 / Fold change vs veh, ABCC4 / RFU, LOC101060439 /// RAP1B / Fold change vs veh, LOC101060439 /// RAP1B / RFU, RFX7 / Fold change vs veh, RFX7 / RFU, GTPBP10 / Fold change vs veh, GTPBP10 / RFU, CNEP1R1 / Fold change vs veh, CNEP1R1 / RFU, BIVM-ERCC5 /// ERCC5 / Fold change vs veh, BIVM-ERCC5 /// ERCC5 / RFU, ILF3 / Fold change vs veh, ILF3 / RFU 11762660_at / Fold change /veh 11762660_at / RFU VCAN (11757783_s_at) / Fold change /veh VCAN (11757783_s_at) / RFU DDX43 (11728927_at) / Fold change /veh DDX43 (11728927_at) / RFU KRT8 (11758188_x_at) / Fold change /veh KRT8 (11758188_x_at) / RFU NKD1 (11759106_at) / Fold change /veh NKD1 (11759106_at) / RFU SRD5A1 (11742802_a_at) / Fold change /veh SRD5A1 (11742802_a_at) / RFU TPSAB1 /// TPSB2 (11721975_s_at) / Fold change /veh TPSAB1 /// TPSB2 (11721975_s_at) / RFU GSTM3 (11746129_a_at) / Fold change /veh GSTM3 (11746129_a_at) / RFU IL23R (11737362_x_at) / Fold change /veh IL23R (11737362_x_at) / RFU TMEM51 (11727254_a_at) / Fold change /veh TMEM51 (11727254_a_at) / RFU PIWIL2 (11732686_x_at) / Fold change /veh PIWIL2 (11732686_x_at) / RFU ORM1 (11744905_x_at) / Fold change /veh ORM1 (11744905_x_at) / RFU CCDC152 (11743942_at) / Fold change /veh CCDC152 (11743942_at) / RFU ECM1 (11717891_a_at) / Fold change /veh ECM1 (11717891_a_at) / RFU IL23R (11748794_a_at) / Fold change /veh IL23R (11748794_a_at) / RFU TNFAIP8L3 (11732012_x_at) / Fold change /veh TNFAIP8L3 (11732012_x_at) / RFU MBOAT4 (11741988_at) / Fold change /veh MBOAT4 (11741988_at) / RFU 11764193_at / Fold change /veh 11764193_at / RFU TMEM53 (11763286_at) / Fold change /veh TMEM53 (11763286_at) / RFU MAGEB2 (11727129_at) / Fold change /veh MAGEB2 (11727129_at) / RFU TMEM200A (11744735_a_at) / Fold change /veh TMEM200A (11744735_a_at) / RFU CCDC152 (11751479_a_at) / Fold change /veh CCDC152 (11751479_a_at) / RFU FAM211A (11726209_a_at) / Fold change /veh FAM211A (11726209_a_at) / RFU RGS16 (11746705_a_at) / Fold change /veh RGS16 (11746705_a_at) / RFU VCAN (11755009_s_at) / Fold change /veh VCAN (11755009_s_at) / RFU RHOB (11743442_s_at) / Fold change /veh RHOB (11743442_s_at) / RFU RGS16 (11720943_a_at) / Fold change /veh RGS16 (11720943_a_at) / RFU RGS16 (11720944_at) / Fold change /veh RGS16 (11720944_at) / RFU, VPS4B / Fold change vs veh, VPS4B / RFU, CREB1 / Fold change vs veh, CREB1 / RFU, DNAJC13 / Fold change vs veh, DNAJC13 / RFU, GNAQ / Fold change vs veh, GNAQ / RFU, CDK5R1 / Fold change vs veh, CDK5R1 / RFU, ZRANB3 / Fold change vs veh, ZRANB3 / RFU, CUL4A / Fold change vs veh, CUL4A / RFU, CCNY / Fold change vs veh, CCNY / RFU, UFL1 / Fold change vs veh, UFL1 / RFU, COG3 / Fold change vs veh, COG3 / RFU, DIAPH2 / Fold change vs veh, DIAPH2 / RFU, SKA2 / Fold change vs veh, SKA2 / RFU, AFF3 / Fold change vs veh, AFF3 / RFU, LMF1 / Fold change vs veh, LMF1 / RFU, IPO11 / Fold change vs veh, IPO11 / RFU, DFFB / Fold change vs veh, DFFB / RFU, FOXP1 / Fold change vs veh, FOXP1 / RFU, CARD8 / Fold change vs veh, CARD8 / RFU, STRN3 / Fold change vs veh, STRN3 / RFU, ADK / Fold change vs veh, ADK / RFU, RASSF2 / Fold change vs veh, RASSF2 / RFU, WIPF1 / Fold change vs veh, WIPF1 / RFU, LARP1B / Fold change vs veh, LARP1B / RFU, RASA1 / Fold change vs veh, RASA1 / RFU, RB1 / Fold change vs veh, RB1 / RFU, PPFIA1 / Fold change vs veh, PPFIA1 / RFU, MAT2A / Fold change vs veh, MAT2A / RFU, CCT5 / Fold change vs veh, CCT5 / RFU, WDR92 / Fold change vs veh, WDR92 / RFU, CUX1 / Fold change vs veh, CUX1 / RFU, TTC7A / Fold change vs veh, TTC7A / RFU, TMEM135 / Fold change vs veh, TMEM135 / RFU, DEPTOR / Fold change vs veh, DEPTOR / RFU, CPM / Fold change vs veh, CPM / RFU, DNAJB6 / Fold change vs veh, DNAJB6 / RFU, CACNA2D3 / Fold change vs veh, CACNA2D3 / RFU, DTX4 / Fold change vs veh, DTX4 / RFU, TFCP2 / Fold change vs veh, TFCP2 / RFU, GMCL1 /// GMCL1P1 / Fold change vs veh, GMCL1 /// GMCL1P1 / RFU, AEBP2 / Fold change vs veh, AEBP2 / RFU, SNHG1 /// SNORD22 /// SNORD25 /// SNORD26 /// SNORD27 /// SNORD28 /// SNORD29 /// SNORD31 / Fold change vs veh, SNHG1 /// SNORD22 /// SNORD25 /// SNORD26 /// SNORD27 /// SNORD28 /// SNORD29 /// SNORD31 / Fold change (Aza/veh), C12orf56 (ProbeSet 11735607_a_at) / Fold change (ACY-1035/veh), C12orf56 (ProbeSet 11735607_a_at) / Fold change (Aza/veh), FGFR1OP (ProbeSet 11751329_s_at) / Fold change (ACY-1035/veh), FGFR1OP (ProbeSet 11751329_s_at) / Fold change (Aza/veh), VPS36 (ProbeSet 11739960_a_at) / Fold change (ACY-1035/veh), VPS36 (ProbeSet 11739960_a_at) / RFU SYPL1 (11715823_x_at) / Fold change /veh SYPL1 (11715823_x_at) / RFU IGFBP7 (11715501_s_at) / Fold change /veh IGFBP7 (11715501_s_at) / RFU REEP3 (11722064_at) / Fold change /veh REEP3 (11722064_at) / RFU IGLL1 (11728026_x_at) / Fold change /veh IGLL1 (11728026_x_at): dose or concentration left out as unconfirmed
Details: ProbeSet 11731093_s_at; LIST B

SMILES: Nc1ccc(-c2cccs2)cc1NC(=O)c1ccc2c(c1)cc(C1CC1)n2CCN1CCOCC1 [ACY-1035]
- Fold change vs veh, BRD1: 0.87
